Assay results as given in article PMC6359675, “Functionalization of the Chalcone Scaffold for the Discovery of Novel Lead Compounds Targeting Fungal Infections” (Molecules, 2019).
Like-named read-outs stand apart in the source and are kept apart here.

Key:
C. albicans ATCC 10231 = assay: In vitro susceptibility testing, microdilution broth (EUCAST), C. albicans control strain; assay type: cell-based, Candida albicans; details: for IC50: mean and 95% confidence interval; for inhibition at 100 µM: ATCC10231, 24 h; for antifungal activity against C. albicans growth, in words: screen at 100 μM
Experimental: The in vitro antifungal activity of the chalcones was evaluated by a microdilution broth method in accordance with the guidelines provided by the EUCAST Edef 7.3 [22]. Briefly, all strains were cultured on Sabauraud dextrose, then inocula, prepared at 0.5 McFarland, were diluted 1:20 in RPMI-1640 medium (Gibco®, ThermoFisher Scientific Inc., Waltham, MA, USA), containing glucose 2%, 0.3% levo-glutamine buffered to pH 7.0 with 0.165 M 3-(N-morpholino)propanesulfonic acid (MOPS) to yield 1-5 × 10^5 cells/mL. A total of 100 µL of the yeast suspension was inoculated in a 96-well microplate and incubated with 100 µL of serially 2-fold dilution of the compound in the range 200–6.25 µM. The following controls were included: yeast suspensions incubated in RPMI-1640 culture medium (positive growth control), or supplemented with dilutions of DMSO, or fluconazole (Sigma-Aldrich, St. Louis, MO, USA) as a commercial drug. To check the background turbidity of reagents and the sterility of the procedure, dilutions of each compound were incubated in RPMI-1640 culture medium, without yeast inoculum. The inoculated plate was incubated at 37 °C for 24 h, and subsequently the optical density at 630 nm was measured by the Multiskan Ascent microplate reader (Thermo Fisher Scientific Inc.). The effectiveness of the compounds was expressed as percent inhibition relative to the positive growth control when the inhibition […] the 50% at 100 µM. The IC50 value was determined by interpolation of the dose–response curves generated by plotting the percentages of growth inhibition, relative to the drug-free control (set to 100% of growth), as a function of the tested concentrations (on a logarithm scale). Statistical analysis was carried out by the nonlinear regression method using GraphPad Prism version 5.0 for Windows (GraphPad Software, San Diego, CA, USA). All assays were performed in triplicate and at least two independent experiments were carried out.

[1] = Cytotoxicity test on Vero cells (WST8/CCK-8 cell viability); assay type: cell-based, African green monkey; details: African green monkey, Vero cells (ATCC CCL-81), Vero cells, mean and 95% confidence interval
Experimental: African green monkey kidney cells (Vero ATCC CCL-81) were cultured in Eagle’s Minimal Essential Medium (MEM) (Sigma-Aldrich), supplemented with 10% fetal bovine serum (FBS) (Carlo Erba Reagents, Milan, Italy), 100 U/mL penicillin, and 100 µg/mL streptomycin at 37 °C with 5% CO2. For experiments, cells were seeded into 96-well plates at 10^4 cells/well, and incubated at 37 °C for 24 h. Following washes with PBS, cell monolayer was incubated with 100 µL of serially 2-fold dilution of the compound in the range 200–6.25 µM. Both untreated cells and cells incubated with medium containing solvent dilutions were included in each experiment as controls.
The cell viability was assessed by a WST8-based assay according to the manufacturer’s instructions (CCK-8, Cell Counting Kit-8, Dojindo Molecular Technologies, Rockville, MD, USA). After 72 h of incubation, culture medium was removed from each well, the monolayer was washed with PBS, and 100 µL of fresh medium containing 10 µL of CCK-8 solution were added. Following a 2 h at 37 °C, the absorbance was measured at 450/630 nm; data were calculated as the percentage of the cell viability relative to the untreated controls.

[2] = Candida albicans, ATCC10231, C. albicans ATCC 10231, read-out: IC50
[3] = Candida albicans, ATCC10231, C. albicans ATCC 10231, read-out: IC50 [μg/mL]
[4] = Candida albicans, C. albicans ATCC 10231
[5] = C. albicans ATCC 10231, read-out: IC50

SMILES	IC50 (C. albicans ATCC 10231; [2]) [µM]	IC50 (C. albicans ATCC 10231; [3]) [µg/mL]	inhibition at 100 µM (C. albicans ATCC 10231; [4]) [%]	CC50 at 72 h ([1]; read-out: CC50) [µM]	CC50 at 72 h ([1]; read-out: CC50 [μg/mL]) [µg/mL]	antifungal activity against C. albicans growth, in words (C. albicans ATCC 10231; C. albicans ATCC 10231)	melting point [°C]	IC50 (C. albicans ATCC 10231; [5]) [µM]
CC(C)=CCOc1ccc(C(=O)/C=C/c2ccncc2)c(O)c1 [Compound 21]	12.6	3.7	96.5 ± 1.4	14.8	4.3	–	–	–
C#CCOc1ccc(C(=O)/C=C/c2cccnc2)c(OC)c1 [Compound 12]	30.7	9	> 99	13.6	4	–	–	–
CC(C)=CCOc1ccc(C(=O)/C=C/c2ccc(N(C)C)cc2)cc1 [Compound 35, (E)-3-(4-(dimethylamino)phenyl)-1-(4-((3-methylbut-2-en-1-yl)oxy)phenyl)prop-2-en-1-one]	–	–	13.9 ± 3.6	–	–	inactive	–	–
O=C(/C=C/c1ccc(F)cc1)c1ccc(OCCO)cc1 [Compound 31, (E)-3-(4-fluorophenyl)-1-(4-(2-hydroxyethoxy)phenyl)prop-2-en-1-one]	12	3.5	97.3 ± 0.5	8.3	2.4	–	–	–
O=C(/C=C/c1ccc(F)cc1)c1cc(F)ccc1O [Compound 8, (E)-1-(5-Fluoro-2-hydroxyphenyl)-3-(4-fluorophenyl)prop-2-en-1-one]	–	–	< 1	–	–	–	–	–
C#CCOc1ccc(C(=O)/C=C/c2ccc([N+](=O)[O-])cc2)cc1 [Compound 38, (E)-3-(4-nitrophenyl)-1-(4-(prop-2-yn-1-yloxy)phenyl)prop-2-en-1-one]	–	–	46.3 ± 3.7	–	–	inactive	103 to 105	–
CC(C)=CCOc1ccc(C(=O)/C=C/c2cccnc2)cc1 [Compound 32, (E)-1-(4-((3-methylbut-2-en-1-yl)oxy)phenyl)-3-(pyridin-3-yl)prop-2-en-1-one]	–	–	< 1	–	–	devoid of any effect	87 to 88	–
C#CCOc1ccc(C(=O)/C=C/c2ccc(N(C)C)cc2)c(O)c1 [Compound 17, (E)-3-(4-(dimethylamino)phenyl)-1-(2-hydroxy-4-(prop-2-yn-1-yloxy)phenyl)prop-2-en-1-one]	–	–	11 ± 3.9	–	–	inactive	–	–
COc1cc(O)ccc1C(=O)/C=C/c1ccc(F)cc1 [Compound 29, (E)-3-(4-Fluorophenyl)-1-(4-hydroxy-2-methoxyphenyl)prop-2-en-1-one]	–	–	17.8 ± 4.1	–	–	poor inhibition	–	–
C#CCOc1ccc(C(=O)/C=C/c2cccnc2)c(OCC#C)c1 [Compound 24]	26.3	12.8	72 ± 9.8	13	3.8	–	–	43.8
C#CCOc1ccc(C(=O)/C=C/c2ccc(N(C)C)cc2)c(OC)c1 [Compound 15, (E)-3-(4-(dimethylamino)phenyl)-1-(2-methoxy-4-(prop-2-yn-1-yloxy)phenyl)prop-2-en-1-one]	–	–	< 1	–	–	inactive	–	–
C#CCOc1ccc(C(=O)/C=C/c2ccc([N+](=O)[O-])cc2)c(OCC#C)c1 [Compound 26]	36.8	10.8	63.9 ± 3.4	5.1	1.5	–	–	–
C#CCOc1ccc(C(=O)/C=C/c2cccnc2)cc1 [Compound 36, (E)-1-(4-(prop-2-yn-1-yloxy)phenyl)-3-(pyridin-3-yl)prop-2-en-1-one]	–	–	< 1	–	–	devoid of any effect	96 to 98	–
CN(C)c1ccc(/C=C/C(=O)c2cc(F)ccc2O)cc1 [Compound 9, (E)-3-(4-(Dimethylamino)phenyl)-1-(5-fluoro-2-hydroxyphenyl)prop-2-en-1-one]	–	–	38.5 ± 2.9	–	–	–	–	–
C#CCOc1ccc2c(c1)O/C(=C\c1cccnc1)C2=O [Compound 40, (Z)-6-(prop-2-yn-1-yloxy)-2-(pyridin-3-ylmethylene)benzofuran-3(2H)-one]	–	–	< 1	–	–	loss in activity	–	–
C#CCOc1ccc(C(=O)/C=C/c2cccnc2)c(O)c1 [Compound 16]	10.8	3.2	91.9 ± 8.2	17.8	5.2	–	–	–
C#CCOc1ccc(C(=O)/C=C/c2ccncc2)cc1 [Compound 37, (E)-1-(4-(prop-2-yn-1-yloxy)phenyl)-3-(pyridin-4-yl)prop-2-en-1-one]	–	–	< 1	–	–	devoid of any effect	99 to 101	–
C#CCOc1ccc(C(=O)/C=C/c2ccc(N(C)C)cc2)c(OCC#C)c1 [Compound 27, (E)-1-(2,4-bis(prop-2-yn-1-yloxy)phenyl)-3-(4-(dimethylamino)phenyl)prop-2-en-1-one]	–	–	< 1	–	–	inactive	–	–
C#CCOc1ccc(C(=O)/C=C/c2ccncc2)c(OC)c1 [Compound 13]	8.1	2.4	> 99	7.3	2.1	–	–	–
CN(C)c1ccc(/C=C/C(=O)c2cc(Cl)ccc2O)cc1 [Compound 6, (E)-1-(5-chloro-2-hydroxyphenyl)-3-(4-(dimethylamino)phenyl)prop-2-en-1-one]	–	–	< 1	–	–	inactive	–	–
O=C(/C=C/c1ccccc1F)c1cc(Cl)ccc1O [Compound 2, (E)-1-(5-Chloro-2-hydroxyphenyl)-3-(2-fluorophenyl)prop-2-en-1-one]	–	–	35.8 ± 1.1	–	–	–	–	–
C#CCOc1ccc(C(=O)/C=C/c2ccc(Cl)cc2Cl)c(OC)c1 [Compound 11, (E)-3-(2,4-dichlorophenyl)-1-(2-methoxy-4-(prop-2-yn-1-yloxy)phenyl)prop-2-en-1-one]	–	–	9.8 ± 6.7	–	–	inactive	174 to 175	–
COc1cc(OCC=C(C)C)ccc1C(=O)/C=C/c1ccc(F)cc1 [Compound 18]	–	–	34.1 ± 7.5	–	–	–	–	–
C#CCOc1ccc(C(=O)/C=C/c2ccncc2)c(OCC#C)c1 [Compound 25]	43.8	7.7	81.3 ± 17	9.1	2.7	–	–	26.3
C#CCOc1ccc(C(=O)/C=C/c2ccc(F)cc2)c(OC)c1 [Compound 10, (E)-3-(4-fluorophenyl)-1-(2-methoxy-4-(prop-2-yn-1-yloxy)phenyl)prop-2-en-1-one]	–	–	23.3 ± 9.6	–	–	–	–	–
COc1cc(OCc2cn(CCO)nn2)ccc1C(=O)/C=C/c1ccc(F)cc1 [Compound 30, (E)-3-(4-fluorophenyl)-1-(4-((1-(2-hydroxyethyl)-1H-1,2,3-triazol-4-yl)methoxy)-2-methoxyphenyl)prop-2-en-1-one]	–	–	9.5 ± 4.8	–	–	inactive	–	–
C#CCOc1ccc(C(=O)/C=C/c2ccc(F)cc2)c(OCC#C)c1 [Compound 22]	–	–	< 1	–	–	inactive	–	–
C#CCOc1ccc(C(=O)/C=C/c2ccc(N(C)C)cc2)cc1 [Compound 39, (E)-3-(4-(dimethylamino)phenyl)-1-(4-(prop-2-yn-1-yloxy)phenyl)prop-2-en-1-one]	–	–	< 1	–	–	inactive	–	–
